Values belong to the compound of their own block, whether it stands above or below them.
Legend:
[1] = biological target: MAP kinase-activated protein kinase 3 (Homo sapiens) (UniProt Q16644); experiment: Selectivity interaction (Kinase panel (Z-LYTE Assay)) EUB0001632a MAPKAPK3; details: at 10 µM
[2] = biological target: Ribosomal protein S6 kinase alpha-3 (Homo sapiens, UniProt P51812); experiment: Selectivity interaction (KinomeScan (DiscoverX)) EUB0000311b RPS6KA3; details: at 1 µM
[3] = biological target: Tyrosine-protein kinase Lck (Homo sapiens, UniProt P06239); experiment: Selectivity interaction (Kinase panel (literature)) EUB0001199aCl LCK; details: at 1 µM
Chain of Tyrosine-protein kinase Lck (P06239 2-509 limits assumed): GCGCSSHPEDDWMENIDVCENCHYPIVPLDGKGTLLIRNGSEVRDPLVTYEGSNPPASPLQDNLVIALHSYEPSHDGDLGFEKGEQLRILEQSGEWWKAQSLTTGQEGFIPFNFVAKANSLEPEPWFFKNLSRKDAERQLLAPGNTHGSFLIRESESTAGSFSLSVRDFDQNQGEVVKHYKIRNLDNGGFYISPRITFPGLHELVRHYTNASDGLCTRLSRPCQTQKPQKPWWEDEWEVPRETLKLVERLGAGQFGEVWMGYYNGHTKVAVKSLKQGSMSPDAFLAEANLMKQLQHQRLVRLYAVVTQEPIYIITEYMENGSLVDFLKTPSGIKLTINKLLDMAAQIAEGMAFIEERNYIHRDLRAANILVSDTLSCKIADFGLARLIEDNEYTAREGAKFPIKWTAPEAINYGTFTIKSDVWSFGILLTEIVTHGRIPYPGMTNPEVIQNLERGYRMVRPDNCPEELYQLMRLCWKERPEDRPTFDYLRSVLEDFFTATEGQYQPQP

[4] = biological target: Proto-oncogene tyrosine-protein kinase ROS (Homo sapiens) (UniProt P08922); experiment: Selectivity interaction (SelectScreen profiling (Invitrogen)) EUB0000607a ROS1; details: at 2 µM
[5] = biological target: T1, Serine/threonine-protein kinase Nek2 (Homo sapiens) (UniProt P51955); experiment: Selectivity interaction (Upstate Kinase Profiler service (Millipore)) EUB0000056c NEK2; details: at 1 µM
T1 sequence (whole entry): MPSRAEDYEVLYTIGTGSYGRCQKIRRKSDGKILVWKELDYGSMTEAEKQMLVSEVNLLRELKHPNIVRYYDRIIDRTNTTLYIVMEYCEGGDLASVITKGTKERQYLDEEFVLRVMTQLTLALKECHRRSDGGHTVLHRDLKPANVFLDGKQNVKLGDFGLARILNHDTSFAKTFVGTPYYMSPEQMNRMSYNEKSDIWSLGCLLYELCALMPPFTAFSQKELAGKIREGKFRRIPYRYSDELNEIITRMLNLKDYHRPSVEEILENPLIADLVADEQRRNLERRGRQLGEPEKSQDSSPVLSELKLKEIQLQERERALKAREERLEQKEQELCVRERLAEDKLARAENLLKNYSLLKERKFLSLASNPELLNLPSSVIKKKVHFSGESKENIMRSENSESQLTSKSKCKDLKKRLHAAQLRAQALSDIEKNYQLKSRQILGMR

[6] = biological target: DNA-dependent protein kinase catalytic subunit (Homo sapiens) (UniProt P78527); experiment: Selectivity interaction (ActivX KiNativ screen (kinase selectivity in THP-1 cell lysates)) EUB0000639a PRKDC; type: subcellular; details: lysate, at 0.04 µM
[7] = biological target: Serine/threonine-protein kinase Nek6 (Homo sapiens) (UniProt Q9HC98); experiment: Selectivity interaction (ProQinase) EUB0000171b NEK6
Chain of Serine/threonine-protein kinase Nek6 (Homo sapiens) (Q9HC98 whole entry): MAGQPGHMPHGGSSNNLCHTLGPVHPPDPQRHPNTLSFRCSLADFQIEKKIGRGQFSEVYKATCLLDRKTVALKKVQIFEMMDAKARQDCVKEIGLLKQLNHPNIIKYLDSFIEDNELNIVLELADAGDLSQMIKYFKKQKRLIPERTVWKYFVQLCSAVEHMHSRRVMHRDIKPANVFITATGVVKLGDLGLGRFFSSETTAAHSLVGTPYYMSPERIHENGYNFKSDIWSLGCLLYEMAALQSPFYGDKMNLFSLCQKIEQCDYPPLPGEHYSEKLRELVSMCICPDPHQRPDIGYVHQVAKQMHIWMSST

[8] = system: Leucine-rich repeat serine/threonine-protein kinase 2 (Homo sapiens), Q5S007 [G2019S]; experiment: (§1) Selectivity interaction (KinomeScan (DiscoverX)) EUB0000695a LRRK2; details: at 100 nM
Chain of Leucine-rich repeat serine/threonine-protein kinase 2 (Homo sapiens), Q5S007 [G2019S] (Q5S007 whole entry G2019S): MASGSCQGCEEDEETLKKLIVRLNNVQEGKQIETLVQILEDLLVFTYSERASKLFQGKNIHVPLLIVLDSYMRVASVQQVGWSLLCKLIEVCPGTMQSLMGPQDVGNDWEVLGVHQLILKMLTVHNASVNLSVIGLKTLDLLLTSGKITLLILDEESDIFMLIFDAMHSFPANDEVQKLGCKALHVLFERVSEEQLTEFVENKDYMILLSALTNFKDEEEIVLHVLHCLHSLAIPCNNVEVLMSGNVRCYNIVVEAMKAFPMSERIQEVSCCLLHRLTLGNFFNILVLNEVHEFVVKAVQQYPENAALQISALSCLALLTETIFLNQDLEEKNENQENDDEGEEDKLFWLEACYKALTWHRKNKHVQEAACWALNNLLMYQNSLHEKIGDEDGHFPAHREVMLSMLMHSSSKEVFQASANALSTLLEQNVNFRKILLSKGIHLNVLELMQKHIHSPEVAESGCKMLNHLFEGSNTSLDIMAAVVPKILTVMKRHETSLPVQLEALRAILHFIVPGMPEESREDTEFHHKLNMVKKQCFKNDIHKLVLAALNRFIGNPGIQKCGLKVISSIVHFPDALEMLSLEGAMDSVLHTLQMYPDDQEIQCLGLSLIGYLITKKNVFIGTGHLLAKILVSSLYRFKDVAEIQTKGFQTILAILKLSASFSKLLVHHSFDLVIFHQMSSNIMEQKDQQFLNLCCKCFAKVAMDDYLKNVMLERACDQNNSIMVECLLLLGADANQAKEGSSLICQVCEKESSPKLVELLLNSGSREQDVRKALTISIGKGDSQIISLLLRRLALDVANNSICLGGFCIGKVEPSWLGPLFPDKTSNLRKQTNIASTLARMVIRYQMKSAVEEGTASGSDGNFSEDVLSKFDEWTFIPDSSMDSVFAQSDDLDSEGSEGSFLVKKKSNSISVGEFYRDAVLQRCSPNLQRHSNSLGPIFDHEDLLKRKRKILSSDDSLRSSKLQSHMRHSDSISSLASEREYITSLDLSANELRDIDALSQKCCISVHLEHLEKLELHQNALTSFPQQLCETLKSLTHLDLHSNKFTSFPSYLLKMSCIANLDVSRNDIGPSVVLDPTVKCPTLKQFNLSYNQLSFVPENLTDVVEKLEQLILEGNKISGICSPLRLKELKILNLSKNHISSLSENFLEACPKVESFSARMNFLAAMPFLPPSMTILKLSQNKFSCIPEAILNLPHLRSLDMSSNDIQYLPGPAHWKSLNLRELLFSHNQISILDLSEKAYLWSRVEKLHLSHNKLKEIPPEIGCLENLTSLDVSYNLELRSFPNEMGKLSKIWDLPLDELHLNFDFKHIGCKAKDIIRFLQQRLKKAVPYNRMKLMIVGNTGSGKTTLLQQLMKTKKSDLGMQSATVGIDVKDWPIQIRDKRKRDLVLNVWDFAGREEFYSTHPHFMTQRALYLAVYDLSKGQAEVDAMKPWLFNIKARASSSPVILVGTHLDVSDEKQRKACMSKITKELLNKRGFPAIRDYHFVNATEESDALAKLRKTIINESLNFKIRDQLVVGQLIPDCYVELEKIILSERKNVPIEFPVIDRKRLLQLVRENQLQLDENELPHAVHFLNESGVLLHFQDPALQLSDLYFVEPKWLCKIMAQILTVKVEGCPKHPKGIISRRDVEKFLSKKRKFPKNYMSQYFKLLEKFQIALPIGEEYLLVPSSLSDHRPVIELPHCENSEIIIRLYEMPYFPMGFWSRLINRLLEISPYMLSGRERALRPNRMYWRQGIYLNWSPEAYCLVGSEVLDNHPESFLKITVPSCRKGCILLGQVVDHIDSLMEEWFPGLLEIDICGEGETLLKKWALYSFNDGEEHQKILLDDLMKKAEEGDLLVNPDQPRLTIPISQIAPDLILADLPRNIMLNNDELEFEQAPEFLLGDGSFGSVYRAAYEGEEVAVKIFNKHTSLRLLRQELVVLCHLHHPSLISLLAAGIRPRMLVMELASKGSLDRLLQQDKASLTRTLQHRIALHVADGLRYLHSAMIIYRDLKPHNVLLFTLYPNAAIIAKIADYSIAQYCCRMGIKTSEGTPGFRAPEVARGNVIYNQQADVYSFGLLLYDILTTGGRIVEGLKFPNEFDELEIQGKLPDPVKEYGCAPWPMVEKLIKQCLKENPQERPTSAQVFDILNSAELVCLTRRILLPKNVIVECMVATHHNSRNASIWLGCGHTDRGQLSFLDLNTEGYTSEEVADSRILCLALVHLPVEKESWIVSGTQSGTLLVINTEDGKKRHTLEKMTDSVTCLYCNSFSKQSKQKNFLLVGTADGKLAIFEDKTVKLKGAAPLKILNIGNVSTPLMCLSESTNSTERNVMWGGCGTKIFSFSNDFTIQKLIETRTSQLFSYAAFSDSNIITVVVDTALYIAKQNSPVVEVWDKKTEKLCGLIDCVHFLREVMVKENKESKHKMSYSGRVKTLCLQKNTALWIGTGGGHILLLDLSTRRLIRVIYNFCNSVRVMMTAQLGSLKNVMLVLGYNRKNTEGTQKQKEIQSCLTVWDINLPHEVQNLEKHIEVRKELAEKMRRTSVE

[9] = biological target: Leucine-rich repeat serine/threonine-protein kinase 2 (Homo sapiens, UniProt Q5S007); experiment: as §1; details: at 100 nM
Chain of Leucine-rich repeat serine/threonine-protein kinase 2 (Q5S007 whole entry): as the sequence (Q5S007 whole entry G2019S) above, with S2019G counted along it

[10] = biological target: RAC-alpha serine/threonine-protein kinase (Homo sapiens, UniProt P31749); experiment: Selectivity interaction (Ambit KINOMEscan and KiNATiv profiling in Jurkat cells) EUB0000090b AKT1; type: cell-based; details: at 1 µM
[11] = biological target: Ribosomal protein S6 kinase alpha-2 (Homo sapiens) (UniProt Q15349); experiment: Selectivity interaction (KinomeScan (DiscoverX)) EUB0001079a RPS6KA2; details: at 1 µM
Chain of Ribosomal protein S6 kinase alpha-2 (Homo sapiens) (Q15349 whole entry): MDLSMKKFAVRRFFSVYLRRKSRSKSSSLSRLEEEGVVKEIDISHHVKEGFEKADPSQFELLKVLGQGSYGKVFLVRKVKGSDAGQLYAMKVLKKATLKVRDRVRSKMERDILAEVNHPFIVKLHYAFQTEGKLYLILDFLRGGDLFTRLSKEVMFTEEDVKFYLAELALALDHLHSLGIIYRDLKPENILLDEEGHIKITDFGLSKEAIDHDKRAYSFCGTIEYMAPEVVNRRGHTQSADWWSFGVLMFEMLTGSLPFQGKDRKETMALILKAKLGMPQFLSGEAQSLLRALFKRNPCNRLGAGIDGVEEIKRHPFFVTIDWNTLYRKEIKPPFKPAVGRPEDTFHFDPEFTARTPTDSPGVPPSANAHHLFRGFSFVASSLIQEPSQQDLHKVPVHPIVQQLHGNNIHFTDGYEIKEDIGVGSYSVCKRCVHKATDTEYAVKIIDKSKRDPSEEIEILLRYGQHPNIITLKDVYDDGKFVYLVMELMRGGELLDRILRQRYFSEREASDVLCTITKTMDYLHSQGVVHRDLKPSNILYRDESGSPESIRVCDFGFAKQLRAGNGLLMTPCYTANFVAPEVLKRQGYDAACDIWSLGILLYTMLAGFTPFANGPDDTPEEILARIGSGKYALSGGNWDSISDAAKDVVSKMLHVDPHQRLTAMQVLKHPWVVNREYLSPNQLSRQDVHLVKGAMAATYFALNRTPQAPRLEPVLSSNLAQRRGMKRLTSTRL

[12] = biological target: T2, Protein arginine N-methyltransferase 9 (Homo sapiens) (UniProt Q6P2P2); experiment: Selectivity interaction (Transferase panel (protein, RNA, and DNA methyltransferases. and EP300 (acetyltransferase))) EUB0000270b PRMT9
T2 sequence (whole entry): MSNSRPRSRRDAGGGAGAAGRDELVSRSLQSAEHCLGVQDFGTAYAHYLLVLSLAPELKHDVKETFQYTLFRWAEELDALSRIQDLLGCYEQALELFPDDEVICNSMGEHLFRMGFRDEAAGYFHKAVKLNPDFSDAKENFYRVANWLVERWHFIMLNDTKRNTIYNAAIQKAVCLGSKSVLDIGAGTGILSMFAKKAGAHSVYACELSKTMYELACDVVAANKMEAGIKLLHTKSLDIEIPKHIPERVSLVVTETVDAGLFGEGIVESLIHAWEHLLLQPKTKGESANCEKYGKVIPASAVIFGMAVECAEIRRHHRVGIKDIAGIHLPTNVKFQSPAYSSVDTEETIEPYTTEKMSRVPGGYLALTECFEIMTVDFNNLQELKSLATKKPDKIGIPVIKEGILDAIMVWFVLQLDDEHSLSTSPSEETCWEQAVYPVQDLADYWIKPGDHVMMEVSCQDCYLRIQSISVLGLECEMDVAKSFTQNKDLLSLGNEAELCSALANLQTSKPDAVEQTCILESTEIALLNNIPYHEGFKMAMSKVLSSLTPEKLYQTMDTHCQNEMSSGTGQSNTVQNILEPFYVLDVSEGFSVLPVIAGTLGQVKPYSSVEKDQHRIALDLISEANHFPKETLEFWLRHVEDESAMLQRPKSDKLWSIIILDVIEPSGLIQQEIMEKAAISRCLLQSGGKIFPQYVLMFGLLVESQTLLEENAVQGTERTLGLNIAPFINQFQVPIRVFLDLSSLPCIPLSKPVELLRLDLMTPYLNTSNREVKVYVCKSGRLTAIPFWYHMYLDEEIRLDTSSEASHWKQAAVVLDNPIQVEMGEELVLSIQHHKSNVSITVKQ

[13] = biological target: Tyrosine-protein kinase Fyn (Homo sapiens) (UniProt P06241); experiment: Selectivity interaction (KinomeScan (DiscoverX)) EUB0000618a FYN; details: at 10 µM
Chain of Tyrosine-protein kinase Fyn (Homo sapiens) (P06241 2-537 limits assumed): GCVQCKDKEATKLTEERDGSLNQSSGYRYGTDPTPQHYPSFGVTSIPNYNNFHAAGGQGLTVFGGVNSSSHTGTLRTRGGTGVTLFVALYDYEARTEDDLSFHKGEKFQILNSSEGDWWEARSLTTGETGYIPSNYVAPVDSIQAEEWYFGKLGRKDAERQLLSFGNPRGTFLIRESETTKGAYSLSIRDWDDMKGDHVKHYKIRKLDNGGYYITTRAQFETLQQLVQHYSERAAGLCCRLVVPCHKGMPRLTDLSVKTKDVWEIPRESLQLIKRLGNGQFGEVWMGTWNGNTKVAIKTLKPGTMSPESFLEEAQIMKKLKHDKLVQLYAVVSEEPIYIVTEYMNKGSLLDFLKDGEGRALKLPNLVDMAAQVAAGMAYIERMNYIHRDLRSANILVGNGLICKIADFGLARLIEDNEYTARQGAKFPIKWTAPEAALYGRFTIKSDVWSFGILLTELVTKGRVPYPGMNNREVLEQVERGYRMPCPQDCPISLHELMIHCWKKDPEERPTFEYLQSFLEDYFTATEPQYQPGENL

[14] = biological target: Cyclin-dependent kinase 11B (Homo sapiens) (UniProt P21127); experiment: Selectivity interaction (KinomeScan (DiscoverX)) EUB0001619a CDK11B; details: at 1 µM

Chain of MAP kinase-activated protein kinase 3 (Homo sapiens) (Q16644 whole entry, looked up): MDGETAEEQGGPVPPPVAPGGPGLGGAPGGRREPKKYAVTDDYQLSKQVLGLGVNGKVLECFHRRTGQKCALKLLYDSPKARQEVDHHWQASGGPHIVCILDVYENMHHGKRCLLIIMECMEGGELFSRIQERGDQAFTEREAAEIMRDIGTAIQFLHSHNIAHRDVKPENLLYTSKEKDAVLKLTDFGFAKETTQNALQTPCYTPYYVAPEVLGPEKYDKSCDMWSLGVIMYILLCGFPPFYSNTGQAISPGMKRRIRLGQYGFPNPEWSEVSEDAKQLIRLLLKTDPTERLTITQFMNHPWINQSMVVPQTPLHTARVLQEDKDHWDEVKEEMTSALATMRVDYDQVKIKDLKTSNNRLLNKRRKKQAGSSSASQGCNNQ

- % of control [1]: 2.63%
SMILES: Cn1cc(-n2cnc3c(NCc4nc5cc(Cl)c(Cl)cc5[nH]4)nc(N4CCOCC4)nc32)cn1

- % of control [2]: 0.3%
SMILES: CCc1ccccc1C(=O)Nc1n[nH]c2c(C)c(F)c(C3C(C#N)=C(C)N(C)C(C)=C3C#N)cc12 [BAY-3827]

- % of inhibition [3]: 3%
SMILES: CN1Cc2nccc(-c3cn(C)nc3-c3ccc(F)cc3)c2C1=O

SMILES: CNC(=O)Nc1ccc(-c2nc(N3CC4CCC(C3)O4)c3cnn(C4CCC5(CC4)OCCO5)c3n2)cc1
- % of inhibition [4]: 2%

- % of inhibition [5]: -7%
SMILES: Cc1ccc(-c2ccc3c(ccc4sc5c(c43)NC[C@@H](C)NC5=O)n2)cn1

- % of inhibition [6]: -0.6%
SMILES: CC[C@@H]1[C@H](F)C(=O)N[C@@H]1COc1nccc2cc(C(N)=O)c(OC)cc12 [ZIMLOVISERTIB]

- % of control ([7]; at 1 µM): 91%
- % of control ([7]; at 5 µM): 92%
SMILES: C=CC(=O)Nc1cccc(C(=O)Nc2ccc(Nc3cc(-c4[nH]c(SC)nc4C)ccn3)cc2)c1

SMILES: Cc1cc(F)c(C(=O)Nc2cccc(-c3nncn3C(C)C)n2)cc1-n1cnc(C2CC2)c1
- % of control [8]: 39%
- % of control [9]: 18%

SMILES: CN(C)C/C=C/C(=O)Nc1ccc(C(=O)N2CCCC(Nc3ncc(Cl)c(-c4c[nH]c5ccccc45)n3)C2)cc1 (stereo unspecified)
- % of control [10]: 92%

SMILES: Nc1cnc(N2CCc3cc(S(=O)(=O)Nc4c(F)cc(Cl)cc4F)cc(N4CCCC4=O)c32)nc1 [TP-020n]
- % of control [11]: 100%

- % activity ([12]; at 1 µM): > 90%
- % activity ([12]; at 10 µM): > 80%
SMILES: Cc1cc(CN)cc(C)c1-c1ncn(C)c1-c1cncn1C

SMILES: O[C@H]1CC[C@H](Nc2ncc3nc(Nc4c(F)cc(F)cc4F)n([C@H]4CCOC4)c3n2)CC1
- % of control [13]: 100%

SMILES: N#Cc1cccc(-c2c[nH]c3ncnc(N4CCOCC4)c23)c1
- % of control [14]: 100%

Source: ChEMBL document CHEMBL5465560, “Selectivity Literature for EUbOPEN Chemogenomic Library” (2024)
